# Where two headings read alike, the source gives them in different places.
# How the values were obtained:
# [1] = test system: ZIKV; settings: cited from earlier work
# [2] = test system: ZIKV (SMGC-1); experiment: cell viability assay based on ZIKV-induced cytopathic effect (CPE) in Huh-7 cells; settings: Zika virus, Huh-7, read-out: EC50, protection from ZIKV induced CPE
# [3] = test system: ZIKV; experiment: virus yield reduction assay by qRT-PCR in Huh-7 cells; settings: Huh7 cells, 72 hpi; for effect on viral RNA copy numbers: dose dependent
# [4] = biological target: NS5 MTase of DENV; design: method as in Dong et al., 2008; settings: ref Dong et al., 2008; cited from earlier work
# [5] = test system: WNV; design: method as in Dong et al., 2008; Tao et al., 2018; settings: ref Dong et al., 2008; Tao et al., 2018; read-out: EC50, anti-virus activity for WNV; cited from earlier work
# [6] = test system: DENV; design: method as in Dong et al., 2008; Tao et al., 2018; settings: ref Dong et al., 2008; Tao et al., 2018; read-out: EC50, anti-virus activity for DENV; cited from earlier work
# [7] = biological target: ZIKV NS5 MTase (WT-MTase) (Zika virus, UniProt A0A024B7W1); experiment: biochemical
# [8] = biological target: NS5 MTase of WNV; design: method as in Dong et al., 2008; settings: ref Dong et al., 2008; cited from earlier work
# [9] = biological target: ZIKV NS5 K105A-MTase (Zika virus, UniProt A0A024B7W1, K2625A); experiment: luminescence-based methyltransferase assay, K105A-MTase
# [10] = biological target: ZIKV NS5 WT-MTase (Zika virus, UniProt A0A024B7W1); experiment: surface plasmon resonance assay, WT-MTase; assay type: binding
# [11] = CCK-8 cytotoxicity assay; settings: human
# [12] = test system: SARS-CoV-2 3CL-protease; design: method as in Jang et al., 2020; settings: dose-dependent; ref Jang et al., 2020; cited from earlier work
smiles,measurement,setting,value
Cc1cc(N)c2cc(NC(=O)Nc3ccc4nc(C)cc(N)c4c3)ccc2n1 [NSC 12155],inhibitory activity toward ZIKV,[1]; no reference given,no inhibitory activity
CCN(CC)CCCC(C)Nc1ccnc2cc(Cl)ccc12 (stereo not shown) [chloroquine],EC50,[2],2.55 µM
same,effect on viral RNA copy numbers,[3],significantly reduced viral RNA copy numbers
same,EC50,"[1]; ref Li C. et al., 2017, Han et al., 2019, read-out: EC50, ZIKV infection in vitro",1 to 5 µM
Nc1ncnc2c1ncn2[C@@H]1O[C@H](C[C@@H](N)CC[C@H](N)C(=O)O)[C@@H](O)[C@H]1O [sinefungin],IC50,[4],~0.63 µM
same,EC50,[5],27 µM
same,EC50,"[1]; ref Dong et al., 2008, Tao et al., 2018, read-out: EC50, anti-virus activity for ZIKV",> 50 µM
same,EC50,[6],77 µM
same,IC50,[7],4.03 µM
same,IC50,[8],~14 µM
O=c1c(O)cc([C@H]2Oc3cc(O)cc(O)c3C[C@H]2O)cc2c([C@H]3Oc4cc(O)cc(O)c4C[C@H]3O)cc(O)c(O)c12 [theaflavin],EC50,[2],8.19 µM
same,IC50,[9],37.8 µM
same,Kd,[10],64.4 µM
same,CC50 at 24 h,[11],> 128 µM
same,inhibitory activity toward SARS-CoV-2 by targeting the 3CL-protease,[12],significant inhibitory activity
same,reduction of viral RNA detected in the supernatant,[3]; 20 μM,more than 50%
same,effect on viral RNA copy numbers,[3],significantly reduced viral RNA copy numbers
same,IC50,[7],10.1 µM
same,inhibition at 20 µM,"[7]; at 20 μM, read-out: MTase inhibitory activity in initial screening",> 50%
